Some results are limits rather than exact numbers.

The assay deals with A375 melanoma cells (B-Raf V600E mutation). Kind of assay: A375 (A375_P-ERK) cell activity / cell growth inhibition assay. The conditions noted are these: Homo sapiens, A-375; A375 cells (text: A375_P-ERK). Type of assay: cell-based, human. The procedure: Compounds are assessed in a variety of cell based assays. For example human cell lines with B-RafV600E mutation (A375 melanoma, SKMEL3 melanoma, and COLO205 colon adenocarcinoma), as well as tumorigenic cell lines with wild-type B-RAF (SW620 colon adenocarcinoma) or with Ras mutations (SKMEL2 melanoma and IPC298 melanoma).
On day 1, cells are counted, then centrifuged in a conical tube for 5 minutes at 1000 rpm.
On day 2, compound at a maximum concentration of 5 mM is serially diluted 1:3 (e.g. 10 μL with 30 μL dimethyl sulfoxide) for a total of 8 point titration with DMSO as a control. A 1 μL aliquot of each dilution point and control is added to 249 μL growth media and 50 μL is added to a well containing cells, providing 10 μM compound at the maximum concentration point. The cells are incubated for 3 days at 37° C. in 5% CO2.
ATPlite is added 25 μL to each well, shake for 2 minutes, and the cells are incubated at room temperature for 10 minutes, then luminescence is read on Safire reader. The measured luminescence correlates directly with cell number, such that the reading as a function of compound concentration is used to determine the IC50 value.
The molecule `CCN(C)S(=O)(=O)Nc1ccc(F)c(C(=O)c2c[nH]c3ncc(Cl)cc23)c1F` [P-0012, 5-chloro-3-[3-[[ethyl(methyl)sulfamoyl]amino]-2,6-difluoro-benzoyl]-1H-pyrrolo[2,3-b]pyridine] had an IC50 of less than 1 µM.

`CCN(C)S(=O)(=O)Nc1ccc(F)c(C(=O)c2c[nH]c3ncc(-c4cnc(OC)nc4)cc23)c1F` [P-0014] registered an IC50 of less than 1 µM.

`O=C(c1c(F)ccc(NS(=O)(=O)N2CCCC2)c1F)c1c[nH]c2ncc(F)c(NCC3CC3)c12` [P-0016, N-[3-[4-(cyclopropylmethylamino)-5-fluoro-1H-pyrrolo[2,3-b]pyridine-3-carbonyl]-2,4-difluoro-phenyl]pyrrolidine-1-sulfonamide] came in with an IC50 of less than 1 µM.

As for `CCN(C)S(=O)(=O)Nc1ccc(F)c(C(=O)c2c[nH]c3ncc(C#N)cc23)c1F` [P-0017, 5-cyano-3-[3-[[ethyl(methyl)sulfamoyl]amino]-2,6-difluoro-benzoyl]-1H-pyrrolo[2,3-b]pyridine], the IC50 was less than 1 µM.

The molecule `CCN(C)S(=O)(=O)Nc1cccc(C(=O)c2c[nH]c3ncc(Cl)cc23)c1F` [P-0018, 5-chloro-3-[3-[[ethyl(methyl)sulfamoyl]amino]-2-fluoro-benzoyl]-1H-pyrrolo[2,3-b]pyridine] gave a half-maximal inhibitory concentration (IC50) of less than 1 µM.

Molecule `CCN(C)S(=O)(=O)Nc1cccc(C(=O)c2c[nH]c3ncc(-c4ccc(Cl)cc4)cc23)c1F` [P-0019] returned an IC50 of less than 1 µM.

In turn, `CCN(C)S(=O)(=O)Nc1cccc(C(=O)c2c[nH]c3ncc(-c4cnc(OC)nc4)cc23)c1F` [P-0020] yielded a half-inhibitory concentration (IC50) of less than 1 µM.

For the molecule `Cc1cnc2[nH]cc(C(=O)c3cccc(NS(=O)(=O)N4CCCC4)c3F)c2c1` [P-0023, N-[2-fluoro-3-(5-methyl-1H-pyrrolo[2,3-b]pyridine-3-carbonyl)phenyl]pyrrolidine-1-sulfonamide], the 50% inhibitory concentration (IC50) is less than 1 µM.

As for `COc1ncc(-c2cnc3[nH]cc(C(=O)c4cccc(NS(=O)(=O)N(C)C5CC5)c4F)c3c2)cn1` [P-0025], the half-inhibitory concentration (IC50) is less than 1 µM.

`CNS(=O)(=O)Nc1cccc(C(=O)c2c[nH]c3ncc(-c4cnc(OC)nc4)cc23)c1F` [P-0026] gave an IC50 greater than 1 µM.

As to `CCN(C)S(=O)(=O)Nc1cccc(C(=O)c2c[nH]c3ncc(-c4ccc(C)nc4)cc23)c1F` [P-0033], the IC50 is less than 1 µM.

For `CCN(C)S(=O)(=O)Nc1cccc(C(=O)c2c[nH]c3ncc(-c4ccc(F)cc4)cc23)c1F` [P-0034], the 50% inhibitory concentration (IC50) is less than 1 µM.

Consider `CN(C)S(=O)(=O)Nc1cccc(C(=O)c2c[nH]c3ncc(-c4ccc(F)cc4)cc23)c1F` [P-0035], for which the IC50 is less than 1 µM.

`CCN(C)S(=O)(=O)Nc1cccc(C(=O)c2c[nH]c3ncc(Br)cc23)c1F` [P-0038, 5-bromo-3-[3-[[ethyl(methyl)sulfamoyl]amino]-2-fluoro-benzoyl]-1H-pyrrolo[2,3-b]pyridine] came in with an IC50 of less than 1 µM.

On to `CCN(C)S(=O)(=O)Nc1cccc(C(=O)c2c[nH]c3ncc(C#N)cc23)c1F` [P-0039, 5-cyano-3-[3-[[ethyl(methyl)sulfamoyl]amino]-2-fluoro-benzoyl]-1H-pyrrolo[2,3-b]pyridine], for which the half-inhibitory concentration (IC50) is less than 1 µM.

In turn, `CCCN(C)S(=O)(=O)Nc1cccc(C(=O)c2c[nH]c3ncc(-c4cnc(OC)nc4)cc23)c1F` [P-0040, 3-[2-fluoro-3-[[methyl(propyl)sulfamoyl]amino]benzoyl]-5-(2-methoxypyrimidin-5-yl)-1H-pyrrolo[2,3-b]pyridine] gave an IC50 of less than 1 µM.

In the case of `Cn1cc(-c2cnc3[nH]cc(C(=O)c4cccc(NS(=O)(=O)CC5CC5)c4F)c3c2)cn1` [P-0042, 1-cyclopropyl-N-[2-fluoro-3-[5-(1-methylpyrazol-4-yl)-1H-pyrrolo[2,3-b]pyridine-3-carbonyl]phenyl]methanesulfonamide], the half-inhibitory concentration (IC50) was less than 1 µM.

`O=C(c1cccc(NS(=O)(=O)N2CCCC2)c1F)c1c[nH]c2ncc(-c3cccnc3)cc12` [P-0043, N-[2-fluoro-3-[5-(3-pyridyl)-1H-pyrrolo[2,3-b]pyridine-3-carbonyl]phenyl]pyrrolidine-1-sulfonamide]: the IC50 was less than 1 µM.

What is called IC50 is the concentration needed to halve the response being measured. The low end stands for greater potency in that assay, the high end for weaker potency in that assay.

The record behind these values is patent US11337976B2 (Plexxikon Inc., priority 2011, dated 2022).
